Our source for the TGI and GI50 values is PubChem BioAssay (NCI).

Where “and” joins values, the source holds several entries; their conditions need not be identical. Identical values can stand only once.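 A five-concentration, 48-hour dose response in 96-well plates underlies each endpoint, interpolated linearly between surrounding concentrations. GI50: concentration for 50% inhibition of growth. TGI denotes the concentration required for complete inhibition of growth.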

Test systems include BT-549 breast; PC-3 prostate; MDA-N; 786-0 renal; M14 melanoma; P388 leukemia; DMS 114 small cell lung; M19-MEL melanoma; SN12K1 renal; XF 498 CNS; RXF-631 renal; LXFL 529 NSCLC.
Holding throughout (assay): NCI tumour cell line growth inhibition, 48 h

For `CC(=O)O[C@H]1C(=O)[C@]2(C)[C@@H](OC(=O)OCC(O)CO)C[C@H]3OC[C@@]3(OC(C)=O)[C@H]2[C@H](OC(=O)c2ccccc2)[C@]2(O)C[C@H](OC(=O)[C@H](O)[C@@H](NC(=O)c3ccccc3)c3ccccc3)C(C)=C1C2(C)C` (some centres undefined), the TGI in the assay with BT-549 breast was 22900 nM; with PC-3 prostate, above 70800 nM.
As to `O=C(CCN1CCCC1)Nc1ccc2c(NCCCCc3ccccc3)c3ccccc3nc2c1`, in the assay with PC-3 prostate, the GI50 is 723 nM and the TGI came to 2090 nM.
Take `N#Cc1ccc(Nc2nc3nc[nH]c3c(=O)[nH]2)cc1`: the TGI in the assay with MDA-N, in the assay on BT-549 breast, in the assay on 786-0 renal, with M14 melanoma and in the assay with PC-3 prostate was above 100000 nM each time.
With `CC(=O)OC1CC2(O)C(CCC3(C)C(c4ccc(=O)oc4)CCC32O)C2(C)CCC(O)C=C12` (centres undefined), the GI50 with P388 leukemia is 63800 nM; in the assay on M19-MEL melanoma, 37.5 nM; in the assay with SN12K1 renal, 37.5 nM; in the assay on XF 498 CNS, 13.8 nM. The TGI is 245000 nM with P388 leukemia; 16.4 nM with DMS 114 small cell lung; 187 nM and 111 nM with M19-MEL melanoma; 119 nM and 393 nM in the assay with SN12K1 renal; 26 nM and 55.3 nM with XF 498 CNS.
As to `CC(C)(C)CC(C)(C)Cc1ccc(OCCOCC[N+](C)(C)Cc2ccccc2)cc1`, in the assay on M14 melanoma, the GI50 is 1420 nM and the TGI was found to be 2880 nM.
In the case of `COc1cccc2c1C(=O)c1c(O)c3c(c(O)c1C2=O)C[C@@](O)(C(C)=O)C[C@@H]3OC1CC(N)C(O)C(C)O1` (some centres undefined), the TGI is 383 nM in the assay on P388 leukemia; 3120 nM and 4250 nM in the assay on RXF-631 renal; 1480 nM and 1360 nM and > 5010 nM in the assay on LXFL 529 NSCLC; 215 nM with SN12K1 renal. Further, the GI50 with BT-549 breast is 48.2 nM; with RXF-631 renal, 212 nM; in the assay with M14 melanoma, 48.7 nM; with M19-MEL melanoma it was above 5010 nM.
As for `Cc1c2cc[n+](C)cc2c(COC2OC(CO)C(O)C2O)c2c3ccccc3n(C)c12` (centres undefined), the TGI in the assay on P388 leukemia was above 100000 nM; in the assay on DMS 114 small cell lung, above 100000 nM; with M19-MEL melanoma, above 100000 nM; in the assay on SN12K1 renal, above 100000 nM; in the assay on XF 498 CNS, above 97300 nM.
In the case of `Cc1c2cc[n+](C)cc2c(C)c2c1[nH]c1ccc(O)cc12`, the TGI in the assay with P388 leukemia was 38700 nM; with MDA-N, above 100000 nM; with BT-549 breast, 71100 nM; in the assay on M14 melanoma, 20500 nM; in the assay with DMS 114 small cell lung it was 69600 nM; in the assay on M19-MEL melanoma it was 48000 nM. Also, the TGI is above 100000 nM in the assay with PC-3 prostate and above 82700 nM in the assay with SN12K1 renal.
As to `CCP(=O)(CC)C(Cl)(Cl)C(=O)NC`, the TGI with MDA-N, in the assay on M14 melanoma and with PC-3 prostate was above 100000 nM throughout.
